From patent publication US20060099648A1, “Compositions and methods for epitope mapping” (priority 2000, published 2006)

B1: Peptide# 64 (peptide)
peptide: EEDSG
B2: Peptide# 65 (peptide)
peptide: EDSGS
B3: Peptide# 66 (peptide)
peptide: DSGSN
B4: Peptide# 67 (peptide)
peptide: SGSNG
B5: Peptide# 68 (peptide)
peptide: GSNGK
B6: Peptide# 69 (peptide)
peptide: SNGKK
B7: Peptide# 7 (peptide)
peptide: CVKKQ
B8: Peptide# 70 (peptide)
peptide: NGKKI
B9: Peptide# 71 (peptide)
peptide: GKKIT
B10: Peptide# 72 (peptide)
peptide: KKITC
B11: Peptide# 73 (peptide)
peptide: KITCE
B12: Peptide# 74 (peptide)
peptide: ITCEC
B13: Peptide# 75 (peptide)
peptide: TCECT
B14: Peptide# 76 (peptide)
peptide: CECTK
B15: Peptide# 77 (peptide)
peptide: ECTKP
B16: Peptide# 78 (peptide)
peptide: CTKPD
B17: Peptide# 79 (peptide)
peptide: TKPDS
B18: Peptide# 8 (peptide)
peptide: VKKQC
B19: Peptide# 80 (peptide)
peptide: KPDSY
B20: Peptide# 81 (peptide)
peptide: PDSYP
B21: Peptide# 82 (peptide)
peptide: DSYPL
B22: Peptide# 83 (peptide)
peptide: SYPLF
B23: Peptide# 84 (peptide)
peptide: YPLFD
B24: Peptide# 85 (peptide)
peptide: PLFDG
B25: Peptide# 86 (peptide)
peptide: LFDGI
B26: Peptide# 87 (peptide)
peptide: FDGIF
B27: Peptide# 88 (peptide)
peptide: DGIFC
B28: Peptide# 89 (peptide)
peptide: GIFCS
B29: Peptide# 9 (peptide)
peptide: KKQCP

Test system: MSP1-19
Experiment: Epitope mapping: displacement of human IgG from peptide pins on exposure to MSP1-19
Parameters: species or system Plasmodium falciparum
Details: change in human IgG binding to peptide pin after 1 h exposure to 50 mg/mL MSP1-19 at room temperature; normalised to no-peptide pins and control peptide GLAQG
Protocol: A natural human IgG antibody library was tested for its ability to bind to peptides associated with the 19 kDa C-terminal region of merozoite surface protein 1 (MSP1-19) from Plasmodium falciparum (Kaslow et al., Mol. Biochem. Parasitology 63:283-289 (1994)). The 89 amino acid sequence from MSP1-19 was used for the epitope mapping experiment (see Table 1).
Briefly, a library of pentamer peptides was synthesized on polypropylene pins following the procedures described by Geysen et al., Proc. Natl. Acad. Sci. USA 81:3998-4002 (1984). These peptides represented all five-amino-acid stretches of MSP1-19 offset by one residue (Table 1). Peptide pins were precoated in phosphate buffered saline (PBS), pH 7.2, containing 2% BSA and 0.1% TWEEN 20 for one hour at room temperature. Five successive washes of the pins were carried out for five minutes each with agitation in PBS. Human IgG (Calbiochem; San Diego Calif.) was complexed to the peptides by incubating 0.1 mg/mL IgG in PBS at 4° C. for 30 hours. Unbound antibody was removed by washing as described above in 10 mM TRIS, pH 7.4 buffer containing 150 mM NaCl (TBS) using new microtiter plates for transferring the pins for each of the five washings. Anti-human IgG (goat) alkaline phosphatase conjugate was diluted to 0.1 mg specific antibody/mL in TBS and incubated with the peptide/antibody complex for one hour at room temperature before washing five times with TBS, as described above. The pins were then incubated in assay solution containing 10 mM TRIS, pH 8.0, 150 mM NaCl, 0.5 mM MgCl2, and 0.1 mM 4-methylumbelliferyl-phosphate for 30 minutes at room temperature in the dark. Following incubation, the fluorescence intensity of the assay solution was measured in a Spectromax Gemini plate reader (Molecular Devices; Sunnyvale Calif.)(ex 358 nm/em 450 nm).
The peptide/antibody complexes on the pins were washed five times in TBS, as described above, and incubated with 50 mg/mL MSP1-19 diluted in TBS for one hour at room temperature. The pins were washed in TBS as before and incubated in assay mixture for 30 minutes in the dark prior to measurement of the fluorescent intensity. Change in binding was determined using the equation: ΔF=(FMSP−Fb,MSP)/(F100,MSP−Fb,MSP)−(F0−Fb,0)/(F100,0−Fb,0) where FMSP and F0 are the fluorescence intensities of peptide containing pins after and before exposure to MSP1-19, respectively. Fb,MSP and Fb,0 are the fluorescence intensities of pins with no peptide after and before exposure to MSP1-19, respectively. F100,MSP and F100,0 are the fluorescence intensities of pins containing a control peptide, GLAQG (SEQ ID NO:90), after and prior to exposure to MSP1-19.

Molecule | ΔF (%)
ADAKC [Peptide 58] | <5
AKCTE [Peptide 60] | 5
CDADA [Peptide 56] | <5
CECTK [Peptide 76] | <5
CFRHL [Peptide 18] | <5
CKCLL [Peptide 28] | <5
CLLNY [Peptide 30] | <5
CNENN [Peptide 49] | 16
CPQNS [Peptide 12] | <5
CTEED [Peptide 62] | <5
CTKPD [Peptide 78] | 10
CVENP [Peptide 41] | <5
CVKKQ [Peptide 7] | <5
DADAK [Peptide 57] | <5
DAKCT [Peptide 59] | <5
DEREE [Peptide 23] | <5
DGIFC [Peptide 88] | 7
DKCVE [Peptide 39] | <5
DSGSN [Peptide 66] | 9
DSYPL [Peptide 82] | 9
ECKCL [Peptide 27] | <5
ECTKP [Peptide 77] | 13
EDSGS [Peptide 65] | 7
EECKC [Peptide 26] | <5

Molecule | ΔF (%)
EEDSG [Peptide 64] | 7
EGDKC [Peptide 37] | <5
ENNGG [Peptide 51] | <5
ENPNP [Peptide 43] | <5
EREEC [Peptide 24] | <5
FDGIF [Peptide 87] | 9
FRHLD [Peptide 19] | <5
GCDAD [Peptide 55] | 7
GCFRH [Peptide 17] | <5
GDKCV [Peptide 38] | <5
GGCDA [Peptide 54] | <5
GIFCS [Peptide 89] | 11
GKKIT [Peptide 71] | 6
GSNGK [Peptide 68] | <5
HLDER [Peptide 21] | <5
HQCVK [Peptide 5] | <5
ISQHQ [Peptide 2] | <5
ITCEC [Peptide 74] | 5
KCLLN [Peptide 29] | <5
KCTEE [Peptide 61] | 6
KCVEN [Peptide 40] | <5
KITCE [Peptide 73] | 7
KKITC [Peptide 72] | 9
KKQCP [Peptide 9] | <5

Molecule | ΔF (%)
KPDSY [Peptide 80] | 11
KQCPQ [Peptide 10] | <5
KQEGD [Peptide 35] | <5
LDERE [Peptide 22] | <5
LFDGI [Peptide 86] | 11
LLNYK [Peptide 31] | <5
LNYKQ [Peptide 32] | <5
NENNG [Peptide 50] | 5
NGGCD [Peptide 53] | 10
NGKKI [Peptide 70] | 12
NISQH [Peptide 1] | <5
NNGGC [Peptide 52] | 6
NPNPT [Peptide 44] | <5
NPTCN [Peptide 46] | <5
NSGCF [Peptide 15] | <5
NYKQE [Peptide 33] | <5
PDSYP [Peptide 81] | 9
PLFDG [Peptide 85] | 16
PNPTC [Peptide 45] | <5
PQNSG [Peptide 13] | <5
PTCNE [Peptide 47] | <5
QCPQN [Peptide 11] | <5

Biological target: Human IgG (Calbiochem; San Diego Calif.) (human)
Experiment: IgG displaced from peptide pin; competitor MSP1-19
Details: not given

Molecule | ΔF (%)
B1 | 7
B2 | 7
B3 | 9
B4 | < 5
B5 | < 5
B6 | < 5
B7 | < 5
B8 | 12
B9 | 6
B10 | 9
B11 | 7
B12 | 5
B13 | 12
B14 | < 5
B15 | 13
B16 | 10
B17 | 11
B18 | < 5
B19 | 11
B20 | 9
B21 | 9
B22 | 13
B23 | 12
B24 | 16
B25 | 11
B26 | 9
B27 | 7
B28 | 11
B29 | < 5
